Results from ChEMBL document CHEMBL4346695, “Thiophenol-formaldehyde triazole causes apoptosis induction in ovary cancer cells and prevents tumor growth formation in mice model” (2019).
Active and inactive are the calls of the source. No cut-off for these calls is given here.

Key:
Caov-3 cell line [1] = assay: Antimetastasis activity against human Caov3 cells xenografted in BALB/c nude mouse assessed as reduction of metastasis in peritoneal cavity at 10 mg/kg, ip incubated for 1 hr post tumor implantation and measured after 20 days by H and E staining-based assay; assay type: functional, organism-based
Caov-3 cell line [2] = assay: Antimetastasis activity against human Caov3 cells xenografted in BALB/c nude mouse assessed as reduction of metastasis in spleen at 10 mg/kg, ip incubated for 1 hr post tumor implantation and measured after 20 days by H and E staining-based assay; assay type: functional, organism-based
Caov-3 cell line [3] = assay: (§1) Antimetastasis activity against human Caov3 cells xenografted in BALB/c nude mouse assessed as reduction in infiltration of macrophages in liver lesions at 5 mg/kg, ip incubated for 1 hr post tumor implantation and measured after 20 days by DAB and hematoxylin staining based immunohistochemical analysis; assay type: functional, organism-based
Caov-3 cell line [4] = assay: (§2) Antimetastasis activity against human Caov3 cells xenografted in BALB/c nude mouse assessed as reduction in vWF expression in peritoneal lesions at 5 mg/kg, ip incubated for 1 hr post tumor implantation and measured after 20 days by DAB and hematoxylin staining based immunohistochemical analysis; assay type: functional, organism-based
Caov-3 cell line [5] = assay: Growth inhibition of human Caov3 cells at 0.25 uM incubated for 48 hrs by MTT assay; assay type: functional, cell-based
Caov-3 cell line [6] = assay: Induction of apoptosis in human Caov3 cells assessed as formation of apoptotic nuclei at 0.25 uM incubated for 48 hrs by Hoechst 33342 staining based fluorescent microscopic method relative to control; assay type: functional
Caov-3 cell line [7] = assay: Antimetastasis activity against human Caov3 cells xenografted in BALB/c nude mouse assessed as reduction of metastasis in liver at 10 mg/kg, ip incubated for 1 hr post tumor implantation and measured after 20 days by H and E staining-based assay; assay type: functional, organism-based
Caov-3 cell line [8] = assay: Induction of apoptosis in human Caov3 cells assessed as formation of apoptotic nuclei at 2.0 uM incubated for 48 hrs by Hoechst 33342 staining based fluorescent microscopic method relative to control; assay type: functional
Caov-3 cell line [9] = assay: Growth inhibition of human Caov3 cells at 0.5 uM incubated for 48 hrs by MTT assay; assay type: functional, cell-based
Caov-3 cell line [10] = assay: as §1, with “lungs” for “liver”, “10” for “5”, “analysis relative to control” for “analysis”; assay type: functional; set-up: scale not given: the % may be the effect or the level left
Caov-3 cell line [11] = assay: Induction of Cell cycle arrest in human Caov3 cells assessed as accumulation at G0/G1 phase at 1 uM incubated for 48 hrs by propidium iodide staining based flow cytometric analysis (reference value: 57.77%); assay type: functional
Caov-3 cell line [12] = assay: Antitumor activity against human Caov3 cells xenografted in BALB/c nude mouse assessed as tumor size at 5 mg/kg, ip incubated for 1 hr post tumor implantation and measured after 20 days (reference value: 1956 +/- 367 mm3); assay type: functional
Caov-3 cell line [13] = assay: Antimetastasis activity against human Caov3 cells xenografted in BALB/c nude mouse assessed as reduction in vWF expression in lungs lesions at 5 mg/kg, ip incubated for 1 hr post tumor implantation and measured after 20 days by DAB and hematoxylin staining based immunohistochemical analysis; assay type: functional, organism-based
Caov-4 [14] = assay: Growth inhibition of human Caov4 cells at 0.5 uM incubated for 48 hrs by MTT assay; assay type: functional, cell-based
Caov-3 cell line [15] = assay: Antiinvasive activity in human Caov3 cells at 1.5 uM incubated for 48 hrs using hematoxylin by microscopy-based transwell assay relative to control; assay type: functional
Caov-3 cell line [16] = assay: as §2, with “liver” for “peritoneal”, “10” for “5”, “analysis relative to control” for “analysis”; assay type: functional; set-up: scale not given: the % may be the effect or the level left
Caov-3 cell line [17] = assay: as §2, with “intestinal” for “peritoneal”, “10” for “5”, “analysis relative to control” for “analysis”; assay type: functional; set-up: scale not given: the % may be the effect or the level left
Caov-3 cell line [18] = assay: Induction of Cell cycle arrest in human Caov3 cells assessed as accumulation at G2/M phase at 1 uM incubated for 48 hrs by propidium iodide staining based flow cytometric analysis (reference value: 22.68%); assay type: functional
Caov-3 cell line [19] = assay: as §1, with “lungs” for “liver”; assay type: functional, organism-based
Caov-3 cell line [20] = assay: Growth inhibition of human Caov3 cells incubated for 48 hrs by MTT assay; assay type: functional, cell-based
Caov-3 cell line [21] = assay: Inhibition of metastasis in human Caov3 cells assessed as decrease in FAK phosphorylation level at 0.5 to 5.0 uM incubated for 48 hrs by Western blot analysis; assay type: functional, cell-based
Caov-3 cell line [22] = assay: as §2, with “10” for “5”, “analysis relative to control” for “analysis”; assay type: functional; set-up: scale not given: the % may be the effect or the level left
Caov-3 cell line [23] = assay: as §1, with “intestinal” for “liver”; assay type: functional, organism-based
Caov-3 cell line [24] = assay: Antiinvasive activity in human Caov3 cells at 0.5 uM incubated for 48 hrs using hematoxylin by microscopy-based transwell assay relative to control; assay type: functional
Caov-4 [25] = assay: Growth inhibition of human Caov4 cells at 2 uM incubated for 48 hrs by MTT assay relative to control; assay type: functional; details: Caov-4, 48 h, read-out: GI
Caov-3 cell line [26] = assay: Inhibition of metastasis in human Caov3 cells assessed as decrease in MMP2 expression level at 0.5 uM incubated for 48 hrs by Western blot analysis; assay type: functional, cell-based
Homo sapiens = species on record: Homo sapiens; assay: Growth inhibition of human ES2 cells at 0.5 uM incubated for 48 hrs by MTT assay; assay type: functional
Caov-3 cell line [27] = assay: Antitumor activity against human Caov3 cells xenografted in BALB/c nude mouse assessed as tumor size at 10 mg/kg, ip incubated for 1 hr post tumor implantation and measured after 20 days (reference value: 1956 +/- 367 mm3); assay type: functional
Caov-3 cell line [28] = assay: Antiinvasive activity in human Caov3 cells at 0.25 uM incubated for 48 hrs using hematoxylin by microscopy-based transwell assay; assay type: functional, cell-based
Caov-3 cell line [29] = assay: Antiinvasive activity in human Caov3 cells at 1.0 uM incubated for 48 hrs using hematoxylin by microscopy-based transwell assay relative to control; assay type: functional
Caov-4 [30] = assay: Growth inhibition of human Caov4 cells at 0.25 uM incubated for 48 hrs by MTT assay; assay type: functional, cell-based

Fc1ccccc1-n1cc(COCc2ccccc2S)nn1
Activity (Caov-3 cell line [1]): Active | Activity (Caov-3 cell line [2]): Active | Activity (Caov-3 cell line [3]): inactive | Activity (Caov-3 cell line [4]): inactive | growth inhibition (GI) (Caov-3 cell line [5]): inactive | Activity (Caov-3 cell line [6]): 1.26% | Activity (Caov-3 cell line [7]): Active | Activity (Caov-3 cell line [8]): 62.53% | growth inhibition (GI) (Caov-3 cell line [9]): Active | Activity (Caov-3 cell line [10]): 9% | Activity (Caov-3 cell line [11]): 61.63% | Activity (Caov-3 cell line [12]): 1258 mm3 | Activity (Caov-3 cell line [13]): inactive | growth inhibition (GI) (Caov-4 [14]): Active | Activity (Caov-3 cell line [15]): 39.14% | Activity (Caov-3 cell line [16]): 7% | Activity (Caov-3 cell line [17]): 6% | Activity (Caov-3 cell line [18]): 21.19% | Activity (Caov-3 cell line [19]): inactive | growth inhibition (GI) (Caov-3 cell line [20]): Dose-dependent effect | inhibition (Caov-3 cell line [21]): Active | Activity (Caov-3 cell line [22]): 5% | Activity (Caov-3 cell line [23]): inactive | Activity (Caov-3 cell line [24]): 84.54% | inhibition of growth at 2 µM (Caov-4 [25]): 26% | inhibition (Caov-3 cell line [26]): Active | growth inhibition (GI) (Homo sapiens): Active | Activity (Caov-3 cell line [27]): 213.34 mm3 | Activity (Caov-3 cell line [28]): inactive | Activity (Caov-3 cell line [29]): 67.76% | growth inhibition (GI) (Caov-4 [30]): inactive
